“And” between values parts separate entries of the source, which are not always exact repeats. Equal entries are not always repeated.
Experiment: Pharmacokinetic study of 100 (and metabolite endothal) in SD rats, iv; plasma, liver, brain
Conditions: SD rats
Protocol: 100 was administrated via iv route at 0.5, 1.0 and 1.5 mg/kg into SD rats. The blood, liver and brain tissue samples were collected at predetermined times from rats.
Twelve (12) female SD rats per group were dosed by iv with 100. The rats were fasted overnight prior to dosing, with free access to water. Foods were withheld for 2 hours post-dose. Blood, liver and brain tissue samples in two animals each group were collected at each time point, within 10% of the scheduled time for each time point. Two extra animals were used for analytic method development. Blood (>0.3 mL) were collected via aorta abdominalis in anaesthetic animalsinto tubes containing heparin at 15 min, 1, 2, 6, 10 and 24 hours after iv administration. Liver and brain tissues were collected immediately after animal death. The liver and brain tissues were excised and rinsed with cold saline to avoid blood residual. Upon collection, each sample was placed on ice and the blood samples were subsequently centrifuged (4° C., 11000 rpm, 5 min) to separate plasma. The obtained plasma, liver and brain tissue samples were stored at −70° C. until LC-MS/MS analysis.
AUC0-∞ (AUC/NF) is the area under the plasma concentration-time curve with last concentration extrapolated based on the elimination rate constant.

[1] = 100 iv 0.5 mg/kg, 24 hr, individual

O=C(O)C1C2CCC(O2)C1C(=O)O (stereo not drawn) [Endothal, 7-oxabicyclo[2.2.1]heptane-2,3-dicarboxylic acid]
Endothal brain concentration (100 iv 0.5 mg/kg, 0.25 hr, individual): BLQ
Endothal liver concentration (100 iv 0.5 mg/kg, 0.25 hr, individual, 0.5 mg/kg): 382 ng/g
Endothal brain concentration (100 iv 0.5 mg/kg, 0.25 hr, mean): BLQ
Endothal brain concentration (100 iv 0.5 mg/kg, 1 hr, individual): BLQ
Endothal liver concentration (100 iv 0.5 mg/kg, 1 hr, individual, 0.5 mg/kg): 131 ng/g
Endothal brain concentration (100 iv 0.5 mg/kg, 1 hr, mean): BLQ
Endothal brain concentration (100 iv 0.5 mg/kg, 2 hr, individual): BLQ
Endothal liver concentration (100 iv 0.5 mg/kg, 2 hr, individual, 0.5 mg/kg): 273 ng/g
Endothal brain concentration (100 iv 0.5 mg/kg, 2 hr, mean): BLQ
Endothal brain concentration (100 iv 0.5 mg/kg, 6 hr, individual): BLQ
Endothal plasma concentration (100 iv 0.5 mg/kg, 6 hr, individual, 0.5 mg/kg): BLQ
Endothal brain concentration (100 iv 0.5 mg/kg, 6 hr, mean): BLQ
Endothal brain concentration (100 iv 0.5 mg/kg, 10 hr, individual): BLQ
Endothal brain concentration (100 iv 0.5 mg/kg, 10 hr, mean): BLQ
Endothal brain concentration [1]: BLQ
Endothal plasma concentration [1]: BLQ
Endothal liver concentration (100 iv 0.5 mg/kg, 24 hr, individual, 0.5 mg/kg): 36.4 ng/g
Endothal brain concentration (100 iv 0.5 mg/kg, 24 hr, mean): BLQ
Endothal plasma concentration (100 iv 0.5 mg/kg, 24 hr, mean): BLQ
Endothal brain concentration (100 iv 1.0 mg/kg, 0.25 hr, individual): BLQ
Endothal liver concentration (100 iv 1.0 mg/kg, 0.25 hr, individual, 1 mg/kg): 1320 ng/g
Endothal brain concentration (100 iv 1.0 mg/kg, 0.25 hr, mean): BLQ
Endothal brain concentration (100 iv 1.0 mg/kg, 1 hr, individual): BLQ
Endothal liver concentration (100 iv 1.0 mg/kg, 1 hr, individual, 1 mg/kg): 1380 ng/g and 618 ng/g
Endothal brain concentration (100 iv 1.0 mg/kg, 1 hr, mean): BLQ
Endothal brain concentration (100 iv 1.0 mg/kg, 2 hr, individual): BLQ
Endothal liver concentration (100 iv 1.0 mg/kg, 2 hr, individual, 1 mg/kg): 1530 ng/g and 542 ng/g
Endothal brain concentration (100 iv 1.0 mg/kg, 2 hr, mean): BLQ
Endothal brain concentration (100 iv 1.0 mg/kg, 6 hr, individual): BLQ
Endothal liver concentration (100 iv 1.0 mg/kg, 6 hr, individual, 1 mg/kg): 241 ng/g
Endothal brain concentration (100 iv 1.0 mg/kg, 6 hr, mean): BLQ
Endothal brain concentration (100 iv 1.0 mg/kg, 10 hr, individual): BLQ
Endothal liver concentration (100 iv 1.0 mg/kg, 10 hr, individual, 1 mg/kg): 94.2 ng/g
Endothal brain concentration (100 iv 1.0 mg/kg, 10 hr, mean): BLQ
Endothal brain concentration (100 iv 1.0 mg/kg, 24 hr, individual): BLQ
Endothal liver concentration (100 iv 1.0 mg/kg, 24 hr, individual, 1 mg/kg): 115 ng/g
Endothal brain concentration (100 iv 1.0 mg/kg, 24 hr, mean): BLQ
Endothal brain concentration (100 iv 1.5 mg/kg, 0.25 hr, individual): BLQ
Endothal liver concentration (100 iv 1.5 mg/kg, 0.25 hr, individual, 1.5 mg/kg): 2160 ng/g
Endothal brain concentration (100 iv 1.5 mg/kg, 0.25 hr, mean): BLQ
Endothal brain concentration (100 iv 1.5 mg/kg, 1 hr, individual): BLQ
Endothal liver concentration (100 iv 1.5 mg/kg, 1 hr, individual, 1.5 mg/kg): 2976 ng/g
Endothal brain concentration (100 iv 1.5 mg/kg, 1 hr, mean): BLQ
Endothal brain concentration (100 iv 1.5 mg/kg, 2 hr, individual): BLQ
Endothal liver concentration (100 iv 1.5 mg/kg, 2 hr, individual, 1.5 mg/kg): 2226 ng/g
Endothal brain concentration (100 iv 1.5 mg/kg, 2 hr, mean): BLQ
Endothal brain concentration (100 iv 1.5 mg/kg, 6 hr, individual): BLQ
Endothal liver concentration (100 iv 1.5 mg/kg, 6 hr, individual, 1.5 mg/kg): 1326 ng/g
Endothal brain concentration (100 iv 1.5 mg/kg, 6 hr, mean): BLQ
Endothal brain concentration (100 iv 1.5 mg/kg, 10 hr, individual): BLQ
Endothal liver concentration (100 iv 1.5 mg/kg, 10 hr, individual, 1.5 mg/kg): 137 ng/g and 329 ng/g
